# According to paper PMC10046961, “High-Throughput Screening Assay for Detecting Drug-Induced Changes in Synchronized Neuronal Oscillations and Potential Seizure Risk Based on Ca^2+ Fluorescence Measurements in Human Induced Pluripotent Stem Cell (hiPSC)-Derived Neuronal 2D and 3D Cultures” (Cells, 2023):
# Where two headings read alike, the source gives them in different places. Marks after values point to notes of the source that are not given here.
# Columns and labels:
# [1] = ref PharmaPendium, cited from earlier work
# [2] = tested on: hiPSC-derived neurons co-cultured with human primary astrocytes in 3D; assay: Ca2+ transient oscillation assay (FDSS), 3D spheroids; assay type: cell-based; settings: for Area under the curve - 3D Mean / Peak Number—3D Mean / Peak amplitude - 3D Mean / Peak width - 3D Mean / Peak-to-peak interval - 3D Mean: 60 min
# Summary of the method: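 Fura-2 fluorescence was read twice for 20 min each: a baseline 10 min after 0.04% DMSO, and again 60 min after compound addition at nominal final concentration. The 3D co-cultures (1:1 hiPSC neurons from a donor and human astrocytes, 8000 each) matured 5 weeks in BrainPhys medium after a 1-week differentiation.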
# [3] = tested on: hiPSC-derived neurons co-cultured with human primary astrocytes in 2D; assay: Ca2+ transient oscillation assay (FDSS), 2D co-culture; assay type: cell-based; settings: for effect on peak number / Ca2+ neuronal oscillations, in words: 2D format; for activation at 11.11 µM / activation at 33.33 µM / activation at 100 µM / activation at 300 µM / activation at 0.11 µM / activation at 0.33 µM / activation at 1 µM / activation at 3 µM: Homo sapiens, 1 h, 60 min
# Summary of the method: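 Cultures were 10,000 CW50065 hiPSC excitatory neurons plus 2500 primary human astrocytes per well. Recordings used Cal-520 dye in HBSS/HEPES/glucose at 37 °C, with a 470/540 nm read at 2 Hz. Oscillations were stabilized with 0.04% DMSO, read for 20 min, then read again 60 min after compound addition (final DMSO 0.1%).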
# [4] = Table 1, peak plasma concentration in men, free therapeutic Cmax
# [5] = Table 2, highest plasma concentration in humans after the therapeutic dose
# [6] = read-out: Area under the curve - 2D Mean
# [7] = read-out: Peak amplitude - 2D Mean
# [8] = read-out: Peak-to-peak interval - 2D Mean
smiles,measurement,setting,value
CC(=O)OCC[N+](C)(C)C [Acetylcholine],Free Cmax,[1]; [4],1000 to 10000 nM
same,Free Cmax,[1]; [5],1000 to 10000 nM
same,Area under the curve - 3D Mean,[2]; 11.11 µM,109.9 % change from baseline
same,Peak Number—3D Mean,[2]; 11.11 µM,−33.8 % change from baseline
same,Peak amplitude - 3D Mean,[2]; 11.11 µM,90.9 % change from baseline
same,Peak width - 3D Mean,[2]; 11.11 µM,4.2 % change from baseline
same,Peak-to-peak interval - 3D Mean,[2]; 11.11 µM,89.6 % change from baseline
same,Area under the curve - 3D Mean,[2]; 33.33 µM,110.9 % change from baseline
same,Peak Number—3D Mean,[2]; 33.33 µM,−51.6 * % change from baseline
same,Peak amplitude - 3D Mean,[2]; 33.33 µM,105.2 % change from baseline
same,Peak width - 3D Mean,[2]; 33.33 µM,0.4 % change from baseline
same,Peak-to-peak interval - 3D Mean,[2]; 33.33 µM,38.9 % change from baseline
same,Area under the curve - 3D Mean,[2]; 100 µM,97.3 % change from baseline
same,Peak Number—3D Mean,[2]; 100 µM,−34.9 % change from baseline
same,Peak amplitude - 3D Mean,[2]; 100 µM,88.6 % change from baseline
same,Peak width - 3D Mean,[2]; 100 µM,0.0 % change from baseline
same,Peak-to-peak interval - 3D Mean,[2]; 100 µM,−5.5 % change from baseline
same,Area under the curve - 3D Mean,[2]; 300 µM,72.7 % change from baseline
same,Peak Number—3D Mean,[2]; 300 µM,−68.3 ** % change from baseline
same,Peak amplitude - 3D Mean,[2]; 300 µM,56.5 % change from baseline
same,Peak width - 3D Mean,[2]; 300 µM,−12.2 % change from baseline
same,Peak-to-peak interval - 3D Mean,[2]; 300 µM,75.9 % change from baseline
same,"effect on peak number / Ca2+ neuronal oscillations, in words",[3],significantly reduced peak number
same,activation at 11.11 µM,[3]; [6],38.3%
same,activation at 11.11 µM,[3]; read-out: Peak Number—2D Mean,2.4%
same,activation at 11.11 µM,[3]; [7],11.4%
same,activation at 11.11 µM,[3]; read-out: Peak width - 2D Mean,26.2%
same,activation at 11.11 µM,[3]; [8],28%
same,activation at 33.33 µM,[3]; [6],19.9%
same,activation at 33.33 µM,[3]; read-out: Peak Number—2D Mean,-31.5%
same,activation at 33.33 µM,[3]; [7],2.3%
same,activation at 33.33 µM,[3]; read-out: Peak width - 2D Mean,16.2%
same,activation at 33.33 µM,[3]; [8],-25.8%
same,activation at 100 µM,[3]; [6],-1.3%
same,activation at 100 µM,[3]; read-out: Peak Number—2D Mean,-47.2%
same,activation at 100 µM,[3]; [7],-17%
same,activation at 100 µM,[3]; read-out: Peak width - 2D Mean,-3.8%
same,activation at 100 µM,[3]; [8],11.3%
same,activation at 300 µM,[3]; [6],-6.1%
same,activation at 300 µM,[3]; read-out: Peak Number—2D Mean,-63.5%
same,activation at 300 µM,[3]; [7],-12.8%
same,activation at 300 µM,[3]; read-out: Peak width - 2D Mean,2.6%
same,activation at 300 µM,[3]; [8],45.5%
Clc1ccc2c(c1)C(N1CCNCC1)=Nc1ccccc1O2 [Amoxapine],Free Cmax,[1]; [4],40 to 600 nM
same,Free Cmax,[1]; [5],40 to 600 nM
same,Area under the curve - 3D Mean,[2]; 0.11 µM,122.7 % change from baseline
same,Peak Number—3D Mean,[2]; 0.11 µM,−10.1 % change from baseline
same,Peak amplitude - 3D Mean,[2]; 0.11 µM,92.4 % change from baseline
same,Peak width - 3D Mean,[2]; 0.11 µM,11.9 % change from baseline
same,Peak-to-peak interval - 3D Mean,[2]; 0.11 µM,14.8 % change from baseline
same,Area under the curve - 3D Mean,[2]; 0.33 µM,130.2 % change from baseline
same,Peak Number—3D Mean,[2]; 0.33 µM,−2.2 % change from baseline
same,Peak amplitude - 3D Mean,[2]; 0.33 µM,101.9 % change from baseline
same,Peak width - 3D Mean,[2]; 0.33 µM,12.5 % change from baseline
same,Peak-to-peak interval - 3D Mean,[2]; 0.33 µM,7.1 % change from baseline
same,Area under the curve - 3D Mean,[2]; 1 µM,124.0 % change from baseline
same,Peak Number—3D Mean,[2]; 1 µM,−10.8 % change from baseline
same,Peak amplitude - 3D Mean,[2]; 1 µM,102.7 % change from baseline
same,Peak width - 3D Mean,[2]; 1 µM,6.8 % change from baseline
same,Peak-to-peak interval - 3D Mean,[2]; 1 µM,4.4 % change from baseline
same,Area under the curve - 3D Mean,[2]; 3 µM,148.1 % change from baseline
same,Peak Number—3D Mean,[2]; 3 µM,−7.5 % change from baseline
same,Peak amplitude - 3D Mean,[2]; 3 µM,105.1 % change from baseline
same,Peak width - 3D Mean,[2]; 3 µM,21.0 % change from baseline
same,Peak-to-peak interval - 3D Mean,[2]; 3 µM,−6.6 % change from baseline
same,"effect on peak number of oscillations, in words",[2]; 3D-cultured,did not significantly change the peak number
same,"effect on peak number / Ca2+ neuronal oscillations, in words",[3],significantly reduced peak number
same,activation at 0.11 µM,[3]; [6],27.8%
same,activation at 0.11 µM,[3]; read-out: Peak Number—2D Mean,-5.2%
same,activation at 0.11 µM,[3]; [7],7.7%
same,activation at 0.11 µM,[3]; read-out: Peak width - 2D Mean,22%
same,activation at 0.11 µM,[3]; [8],8.8%
same,activation at 0.33 µM,[3]; [6],25.3%
same,activation at 0.33 µM,[3]; read-out: Peak Number—2D Mean,25.3%
same,activation at 0.33 µM,[3]; [7],12.7%
same,activation at 0.33 µM,[3]; read-out: Peak width - 2D Mean,14.8%
same,activation at 0.33 µM,[3]; [8],-7.8%
same,activation at 1 µM,[3]; [6],22.8%
same,activation at 1 µM,[3]; read-out: Peak Number—2D Mean,12.5%
same,activation at 1 µM,[3]; [7],-1.5%
same,activation at 1 µM,[3]; read-out: Peak width - 2D Mean,31.7%
same,activation at 1 µM,[3]; [8],-4.5%
same,activation at 3 µM,[3]; [6],-40.8%
same,activation at 3 µM,[3]; read-out: Peak Number—2D Mean,-35.3%
same,activation at 3 µM,[3]; [7],-20.7%
same,activation at 3 µM,[3]; read-out: Peak width - 2D Mean,-37.7%
same,activation at 3 µM,[3]; [8],56.7%
